Where two headings read alike, the source gives them in different places. Marks after values point to notes of the source that are not given here.
Tests used:
[1] = tested on: Phytophthora infestans; format: in vivo; details: tomato plants, preventive spray, 500 ppm active ingredient, evaluated 5 days after inoculation
[2] = tested on: Pyrenophora teres; assay: In vivo preventive test on Pyrenophora teres (net blotch on barley); details: barley plants, preventive spray, 500 ppm active ingredient, evaluated 14 days after inoculation
Procedure: (§1) The tested active ingredients are prepared by homogenization in a mixture of acetone/Dimethyl sulfoxide/Tween®, and then diluted with water to obtain the desired active material concentration.
The young plants of barley are treated by spraying the active ingredient prepared as described above. Control plants are treated only with an aqueous solution of acetone/Dimethyl sulfoxide/Tween®.
After 24 hours, the plants are contaminated by spraying the leaves with an aqueous suspension of Pyrenophora teres spores. The contaminated barley plants are incubated for 48 hours at 20° C. and at 100% relative humidity and then for 12 days at 20° C. and at 70-80% relative humidity.
The test is evaluated 14 days after the inoculation. 0% means an efficacy which corresponds to that of the control plants while an efficacy of 100% means that no disease is observed.

[3] = pH 2.7
Procedure: (§2) Calibration was done with not branched alkan2-ones (with 3 to 16 carbon atoms) with known log P-values (measurement of log P values using retention times with linear interpolation between successive alkanones). lambda-maX-values were determined using UV-spectra from 200 nm to 400 nm and the peak values of the chromatographic signals.

[4] = logP by HPLC on reversed phase columns (EEC directive 79/831 Annex V.A8); details: for chromatographic logP: pH 2.7; for LogP: method [a]: HPLC/LC-MS at pH 2.7, 0.1% formic acid in water / acetonitrile gradient, Table 1
Procedure: as §2

[5] = tested on: Botrytis cinerea; assay: In vivo preventive test on Botrytis cinerea (grey mould); details: gherkin plants, preventive spray, 500 ppm active ingredient, evaluated 4 to 5 days after inoculation
Procedure: as §1
The young plants of gherkin are treated by spraying the active ingredient prepared as described above. Control plants are treated only with an aqueous solution of acetone/Dimethyl sulfoxide/Tween®.
After 24 hours, the plants are contaminated by spraying the leaves with an aqueous suspension of Botrytis cinerea spores. The contaminated gherkin plants are incubated for 4 to 5 days at 17° C. and at 90% relative humidity.
The test is evaluated 4 to 5 days after the inoculation. 0% means an efficacy which corresponds to that of the control plants while an efficacy of 100% means that no disease is observed.

[6] = tested on: Plasmopara viticola; assay: Plasmopara test (grapevines) / preventive; format: in vivo; details: grapevine young plants, preventive spray, 10 ppm active ingredient, evaluated 6 days after inoculation
Procedure: To produce a suitable preparation of active compound, 1 part by weight of active compound is mixed with the stated amounts of solvent and emulsifier, and the concentrate is diluted with water to the desired concentration.
To test for preventive activity, young plants are sprayed with the preparation of active compound at the stated rate of application. After the spray coating has dried on, the plants are inoculated with an aqueous spore suspension of Plasmopara viticola and then remain for 1 day in an incubation cabinet at approximately 20° C. and a relative atmospheric humidity of 100%. The plant is subsequently placed for 4 days in a greenhouse at approximately 21° C. and a relative atmospheric humidity of approximately 90%. The plants are then misted and placed for 1 day in an incubation cabinet.
The test is evaluated 6 days after the inoculation. 0% means an efficacy which corresponds to that of the untreated control, while an efficacy of 100% means that no disease is observed.

CCCCC(=O)Nc1cccc(CON=C(c2ccccc2)c2noc(=S)n2C)n1 [Example 6]
% efficacy [1]: 99%
% efficacy [2]: 96%
LogP [3]: 4.18^[a]

Cn1oc(=S)nc1/C(=N\OCc1csc(N)n1)c1ccccc1 [Example 20, 3-[(Z)-{[(2-amino-1,3-thiazol-4-yl)methoxy]imino}(phenyl)methyl]-2-methyl-1,2,4-oxadiazole-5(2H)-thione]
chromatographic logP [4]: 1.53

CCCCCOC(=O)Nc1cccc(CON=C(c2ccccc2)c2noc(=S)n2C)n1 [Example 5]
% efficacy [1]: 80%
LogP [4]: 5.05^[a]

CCCCCCCC(=O)Nc1nc(CON=C(c2ccccc2)c2nc(=S)on2C)cs1 [Example 13]
% efficacy [1]: 98%
LogP [4]: 4.39^[a]

C#CCCCCOC(=O)Nc1nc(CON=C(c2ccccc2)c2nc(=S)on2C)cs1 [Example 17]
% efficacy [1]: 100%
LogP [4]: 3.44^[a]

Cn1oc(=S)nc1C(=NOCc1csc(NC(=O)C2(C)CC2)n1)c1ccccc1 [Example 15]
% efficacy [5]: 95%
% efficacy [1]: 99%
LogP [3]: 3.11^[a]

C#CCCOC(=O)Nc1nc(CON=C(c2ccccc2)c2nc(=S)on2C)cs1 [Example 9]
% efficacy [1]: 89%
LogP [4]: 2.96^[a]

Cn1c(/C(=N\OCc2cccc(N)n2)c2ccccc2)noc1=S [Example 7, 3-[(Z)-{[(6-aminopyridin-2-yl)methoxy]imino}(phenyl)methyl]-4-methyl-1,2,4-oxadiazole-5(4H)-thione]
% efficacy [1]: 99%
chromatographic logP [4]: 1.59

CN1C(C(=NOCc2cccc(NC(=O)OC(C)(C)C)n2)c2ccccc2)=NOS1=O (centres unmarked) [Example 28]
LogP [4]: 4.18^[a]

C#CCCCOC(=O)Nc1nc(CON=C(c2ccccc2)c2nc(=S)on2C)cs1 [Example 29]
% efficacy [5]: 71%
LogP [3]: 3.19^[a]

Cn1oc(=S)nc1C(=NOCc1csc(NC(=O)OC2CC3CCC2C3)n1)c1ccccc1 (centres unmarked) [Example 12]
LogP [4]: 4.06^[a]

Cn1c(/C(=N\OCc2cccc(NC(=O)OC(C)(C)C)n2)c2ccccc2)noc1=S [Example 1, tert-butyl {6-[({[(Z)-(4-methyl-5-thioxo-4,5-dihydro-1,2,4-oxadiazol-3-yl)(phenyl)methylene]amino}oxy)methyl]pyridin-2-yl}carbamate]
% efficacy [1]: 97%
chromatographic logP [4]: 4.66

Cn1oc(=S)nc1C(=NOCc1csc(NC(=O)C(C)(C)C)n1)c1ccccc1 [Example 21]
LogP [4]: 3.31^[a]

CCCCCCC(=O)Nc1nc(CON=C(c2ccccc2)c2nc(=S)on2C)cs1 [Example 24]
% efficacy [5]: 84%
% efficacy [1]: 79%
LogP [3]: 3.99^[a]

Cn1oc(=S)nc1C(=NOCc1csc(NC(=O)C2COc3ccccc3O2)n1)c1ccccc1 (centres unmarked) [Example 11]
% efficacy [1]: 76%
% efficacy [6]: 82%
LogP [3]: 3.50^[a]

C#CCCOC(=O)Nc1cccc(CON=C(c2ccccc2)c2nc(=S)on2C)n1 [Example 26]
LogP [4]: 3.15^[a]

C#CCC(C)(C)OC(=O)Nc1cccc(CON=C(c2ccccc2)c2noc(=S)n2C)n1 [Example 3]
% efficacy [1]: 93%
LogP [4]: 4.54^[a]

C#CCCOC(=O)Nc1cccc(CO/N=C(/c2ccccc2)c2noc(=S)n2C)n1 [Example 2, but-3-yn-1-yl {6-[({[(Z)-(4-methyl-5-thioxo-4,5-dihydro-1,2,4-oxadiazol-3-yl)(phenyl)methylene]amino}oxy)methyl]pyridin-2-yl}carbamate]
% efficacy [1]: 93%
chromatographic logP [4]: 3.87

CCCCCC(=O)Nc1nc(CON=C(c2ccccc2)c2nc(=S)on2C)cs1 [Example 16]
% efficacy [5]: 95%
% efficacy [1]: 76%
LogP [3]: 3.63^[a]

CCC(C)SC(=O)Nc1nc(CON=C(c2ccccc2)c2nc(=S)on2C)cs1 (centres unmarked) [Example 18]
% efficacy [1]: 83%
LogP [4]: 3.90^[a]

Cn1c(C(=NOCc2cccc(NC(=O)OCc3ccccc3)n2)c2ccccc2)noc1=S [Example 4]
LogP [4]: 4.58^[a]

CC(COc1ccccc1)OC(=O)Nc1nc(CON=C(c2ccccc2)c2nc(=S)on2C)cs1 (centres unmarked) [Example 31]
LogP [4]: 4.44^[a]

Cn1oc(=S)nc1/C(=N\OCc1csc(NC(=O)OC(C)(C)C)n1)c1ccccc1 [Example 30, tert-butyl {4-[({[(Z)-(2-methyl-5-thioxo-2,5-dihydro-1,2,4-oxadiazol-3-yl)(phenyl)methylene]amino}oxy)methyl]-1,3-thiazol-2-yl}carbamate]
% efficacy [1]: 100%
% efficacy [2]: 86%
% efficacy [6]: 79%
chromatographic logP [4]: 3.53

Cn1oc(=S)nc1C(=NOCc1csc(NC(=O)COc2ccccc2)n1)c1ccccc1 [Example 10]
% efficacy [5]: 74%
% efficacy [1]: 84%
LogP [3]: 3.31^[a]

C#CCCC(C)OC(=O)Nc1nc(CON=C(c2ccccc2)c2nc(=S)on2C)cs1 (centres unmarked) [Example 25]
LogP [4]: 3.41^[a]

Cn1oc(=S)nc1C(=NOCc1csc(NC(=O)c2ccccc2)n1)c1ccccc1 [Example 23]
% efficacy [5]: 99%
% efficacy [1]: 71%
LogP [4]: 3.31^[a]

C#CCC(C)OC(=O)Nc1nc(CON=C(c2ccccc2)c2nc(=S)on2C)cs1 (centres unmarked) [Example 22]
% efficacy [1]: 74%
LogP [4]: 3.23^[a]

CCCCC(CC)COC(=O)Nc1nc(CON=C(c2ccccc2)c2nc(=S)on2C)cs1 (centres unmarked) [Example 32]
LogP [4]: 5.55^[a]

C#CCCOC(=O)Nc1cccc(CON=C(c2ccccc2)c2nc(=NC#N)on2C)n1 [Example 19]
LogP [4]: 3.13^[a]

Cn1oc(=S)nc1C(=NOCc1csc(NC(=O)OCCc2ccccc2)n1)c1ccccc1 [Example 8]
% efficacy [1]: 79%
LogP [4]: 3.76^[a]

Cn1oc(=S)nc1C(=NOCc1csc(NC(=O)OCCOc2ccccc2)n1)c1ccccc1 [Example 27]
% efficacy [1]: 90%
LogP [4]: 4.18^[a]

CNC(=N\O)/C(=N\OCc1cccc(NC(=O)OC(C)(C)C)n1)c1ccccc1 [VIII-1, tert-butyl {6-[({[(1Z,2Z)-2-(hydroxyimino)-2-(methylamino)-1-phenylethylidene]amino}oxy)methyl]pyridin-2-yl}carbamate]
chromatographic logP [4]: 2.6
